{"source": "PubChem BioAssay AID1963963", "about": "(Molecular Pharmacology Branch, DTP, NCI, 2024);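 also: spheroids exposed to compounds for seven days before readout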", "tested_on": "958667-338-R-J2-PDC tumor spheroids viability", "assay": "Anticancer human tumor 958667-338-R-J2-PDC patient-derived colon adenocarcinoma cell line growth inhibition [PI3K]", "conditions": "spheroids with HUVEC and MSC; for IC50: curve of first compound; for viability, T/C: stronger effect = lower value", "in_short": "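Spheroid viability read-out. Co-cultures contained the tumor line plus HUVEC and human MSCs. Each agent was paired with a PI3K inhibitor (inavolisib, alpelisib, duvelisib, copanlisib) across half-log dilutions starting at clinical Cmax, or at 10 microM when Cmax was unknown.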", "data": [{"smiles": "CCCS(=O)(=O)Nc1ccc(F)c(C(=O)c2c[nH]c3ncc(-c4ccc(Cl)cc4)cc23)c1F", "note": "+ COc1c(OCCCN2CCOCC2)ccc2c3n(c(=NC(=O)c4cnc(N)nc4)nc12)CCN3", "values": [{"measurement": "IC50", "setting": "second compound 0.00316 µM", "value": 5.88, "unit": "µM"}, {"measurement": "IC50", "setting": "second compound 0.01 µM", "value": 6.02, "unit": "µM"}, {"measurement": "IC50", "setting": "second compound 0.0316 µM", "value": 4.97, "unit": "µM"}, {"measurement": "IC50", "setting": "second compound 0.1 µM", "value": 4.08, "unit": "µM"}, {"measurement": "IC50", "setting": "second compound 0.316 µM", "value": "< 0.0316", "unit": "µM"}, {"measurement": "IC50", "setting": "second compound 1 µM", "value": "< 0.0316", "unit": "µM"}, {"measurement": "viability, T/C", "setting": "second compound 0.00316 µM, first compound 0.0316 µM", "value": 126, "unit": "%"}, {"measurement": "viability, T/C", "setting": "second compound 0.00316 µM, first compound 0.1 µM", "value": 93.4, "unit": "%"}, {"measurement": "viability, T/C", "setting": "second compound 0.00316 µM, first compound 0.316 µM", "value": 94.4, "unit": "%"}, {"measurement": "viability, T/C", "setting": "second compound 0.00316 µM, first compound 1 µM", "value": 109, "unit": "%"}, {"measurement": "viability, T/C", "setting": "second compound 0.00316 µM, first compound 3.16 µM", "value": 99.5, "unit": "%"}, {"measurement": "viability, T/C", "setting": "second compound 0.00316 µM, first compound 10 µM", "value": 7.46, "unit": "%"}, {"measurement": "viability, T/C", "setting": "second compound 0.01 µM, first compound 0.0316 µM", "value": 89.1, "unit": "%"}, {"measurement": "viability, T/C", "setting": "second compound 0.01 µM, first compound 0.1 µM", "value": 93.7, "unit": "%"}, {"measurement": "viability, T/C", "setting": "second compound 0.01 µM, first compound 0.316 µM", "value": 111, "unit": "%"}, {"measurement": "viability, T/C", "setting": "second compound 0.01 µM, first compound 1 µM", "value": 84.8, "unit": "%"}, {"measurement": "viability, T/C", "setting": "second compound 0.01 µM, first compound 3.16 µM", "value": 110, "unit": "%"}, {"measurement": "viability, T/C", "setting": "second compound 0.01 µM, first compound 10 µM", "value": 12.4, "unit": "%"}, {"measurement": "viability, T/C", "setting": "second compound 0.0316 µM, first compound 0.0316 µM", "value": 63, "unit": "%"}, {"measurement": "viability, T/C", "setting": "second compound 0.0316 µM, first compound 0.1 µM", "value": 67.5, "unit": "%"}, {"measurement": "viability, T/C", "setting": "second compound 0.0316 µM, first compound 0.316 µM", "value": 74.5, "unit": "%"}, {"measurement": "viability, T/C", "setting": "second compound 0.0316 µM, first compound 1 µM", "value": 74.5, "unit": "%"}, {"measurement": "viability, T/C", "setting": "second compound 0.0316 µM, first compound 3.16 µM", "value": 103, "unit": "%"}, {"measurement": "viability, T/C", "setting": "second compound 0.0316 µM, first compound 10 µM", "value": 8.73, "unit": "%"}, {"measurement": "viability, T/C", "setting": "second compound 0.1 µM, first compound 0.0316 µM", "value": 67.4, "unit": "%"}, {"measurement": "viability, T/C", "setting": "second compound 0.1 µM, first compound 0.1 µM", "value": 52.2, "unit": "%"}, {"measurement": "viability, T/C", "setting": "second compound 0.1 µM, first compound 0.316 µM", "value": 61.7, "unit": "%"}, {"measurement": "viability, T/C", "setting": "second compound 0.1 µM, first compound 1 µM", "value": 61.8, "unit": "%"}, {"measurement": "viability, T/C", "setting": "second compound 0.1 µM, first compound 3.16 µM", "value": 63.2, "unit": "%"}, {"measurement": "viability, T/C", "setting": "second compound 0.1 µM, first compound 10 µM", "value": 10.3, "unit": "%"}, {"measurement": "viability, T/C", "setting": "second compound 0.316 µM, first compound 0.0316 µM", "value": 31.6, "unit": "%"}, {"measurement": "viability, T/C", "setting": "second compound 0.316 µM, first compound 0.1 µM", "value": 49.6, "unit": "%"}, {"measurement": "viability, T/C", "setting": "second compound 0.316 µM, first compound 0.316 µM", "value": 38.3, "unit": "%"}, {"measurement": "viability, T/C", "setting": "second compound 0.316 µM, first compound 1 µM", "value": 32.2, "unit": "%"}, {"measurement": "viability, T/C", "setting": "second compound 0.316 µM, first compound 3.16 µM", "value": 37.5, "unit": "%"}, {"measurement": "viability, T/C", "setting": "second compound 0.316 µM, first compound 10 µM", "value": 6.35, "unit": "%"}, {"measurement": "viability, T/C", "setting": "second compound 1 µM, first compound 0.0316 µM", "value": 19, "unit": "%"}, {"measurement": "viability, T/C", "setting": "second compound 1 µM, first compound 0.1 µM", "value": 23.5, "unit": "%"}, {"measurement": "viability, T/C", "setting": "second compound 1 µM, first compound 0.316 µM", "value": 16.7, "unit": "%"}, {"measurement": "viability, T/C", "setting": "second compound 1 µM, first compound 1 µM", "value": 20.8, "unit": "%"}, {"measurement": "viability, T/C", "setting": "second compound 1 µM, first compound 3.16 µM", "value": 19.2, "unit": "%"}, {"measurement": "viability, T/C", "setting": "second compound 1 µM, first compound 10 µM", "value": 5.1, "unit": "%"}]}]}
